Assay results as given in patent US20060089390A1, “3-benzoyl-2,4,5-substituted pyridine derivatives or salts thereof and bactericides containing the same” (Ishihara Sangyo Kaisha, Ltd., priority 2002, published 2006).
Where two headings read alike, the source gives them in different places.

Key:
wheat powdery mildew = experiment: Test on preventive effect against wheat powdery mildew; assay type: in vivo, Wheat (cultivar: Norin-61-go); conditions: Triticum aestivum, foliar spray before inoculation, examined 6 to 8 days after inoculation, read-out: controlling effects as compared with non-treated cases (area of sporogony)
Procedure: Tests on Preventive Effect Against Wheat Powdery Mildew Wheat (cultivar: […] After the drug solution dried, the wheat was inoculated by spreading with conidiospore of fungi of powdery mildew, and the wheat was kept in a thermostatic chamber at 20° C. From 6 to 8 days after the inoculation, the area of sporogony was examined.

rice blast = experiment: whole plant or invertebrate; assay type: in vivo, Rice (cultivar: Nihonbare); conditions: Pyricularia oryzae, foliar, read-out: controlling effects as compared with non-treated cases (number of lesions)
cucumber powdery mildew [1] = experiment: Test on preventive effect against cucumber powdery mildew; assay type: in vivo, Cucumber (cultivar: Suyo); conditions: Cucumis sativus, foliar spray before inoculation, examined 6 to 11 days after inoculation, read-out: controlling effects as compared with non-treated cases (area of sporogony)
Procedure: Test on Preventive Effect Against Cucumber Powdery Mildew Cucumber (cultivar: […] After the drug solution dried, the cucumber was sprayed and inoculated with a conidiospore suspension of fungi of powdery mildew, and the cucumber was kept in a thermostatic chamber at 20° C. From 6 to 11 days after the inoculation, the area of sporogony was examined.

cucumber powdery mildew [2] = experiment: Test on rainfastness of effect against cucumber powdery mildew; assay type: in vivo, Cucumber (cultivar: Suyo); conditions: Cucumis sativus, topical, 500 gai/ha
Procedure: Cucumber (cultivar: […] A day after the treatment, 10 mm/hr of artificial rainfall was applied for 1 hour. Together with seedlings not subjected to rainfall treatment (preventive), the cucumber was sprayed and inoculated with a conidiospore suspension of fungi of powdery mildew, and the cucumber was kept in a thermostatic chamber at 20° C. From 6 to 11 days after the inoculation, the number of lesions was examined, and the controlling rate was calculated by comparison with the non-treated cases. The results are shown in Table 5.

[3] = 10 mm/hr artificial rainfall for 1 hour a day after treatment, read-out: Controlling rate of cucumber powdery mildew (%) Rainfall
[4] = no rainfall treatment (preventive), read-out: Controlling rate of cucumber powdery mildew (%) Preventive

Compound	pest or weed control at 125 ppm (wheat powdery mildew) [%]	pest or weed control at 500 ppm (rice blast) [%]	pest or weed control at 125 ppm (cucumber powdery mildew [1]) [%]	pest or weed control at 500 g/ha (cucumber powdery mildew [2]; [3]) [%]	pest or weed control at 500 g/ha (cucumber powdery mildew [2]; [4]) [%]	melting point [°C]
COc1cc(C)c(C(=O)c2c(SC)ncc(C)c2C)c(OC)c1OC [1-22, 3-(2,3,4-trimethoxy-6-methylbenzoyl)-4,5-dimethyl-2-methylthiopyridine]	≥ 90	≥ 90	≥ 90	–	–	–
COc1cc(C)c(C(=O)c2c(OC)ncc(Cl)c2C)c(OC)c1OC [Compound No. 1-35, 3-(2,3,4-trimethoxy-6-methylbenzoyl)-5-chloro-2-methoxy-4-methylpyridine]	≥ 90	≥ 90	≥ 90	100	100	–
COc1cc(C)c(C(=O)c2c(OC)ncc(C)c2Cl)c(OC)c1OC [1-24, 3-(2,3,4-trimethoxy-6-methylbenzoyl)-4-chloro-2-methoxy-5-methylpyridine]	≥ 90	≥ 90	≥ 90	85	100	–
COc1cc(C)c(C(=O)c2c(OC)ncc(Br)c2Cl)c(OC)c1OC [1-23, 3-(2,3,4-trimethoxy-6-methylbenzoyl)-5-bromo-4-chloro-2-methoxypyridine]	≥ 90	≥ 90	≥ 90	100	100	–
COc1cc(C)c(C(=O)c2c(OC)ncc(Cl)c2OC)c(OC)c1OC [1-11, 3-(2,3,4-trimethoxy-6-methylbenzoyl)-5-chloro-2,4-dimethoxypyridine]	≥ 90	–	≥ 90	–	–	93 to 94
COc1cc(C)c(C(=O)c2c(OC)cnc(Br)c2C)c(OC)c1OC [2-3, 4-(2,3,4-trimethoxy-6-methylbenzoyl)-2-bromo-5-methoxy-3-methylpyridine, reference compound]	≥ 90	≥ 90	≥ 90	0	100	–
COc1cc(C)c(C(=O)c2c(OC)ncc(C)c2C)c(OC)c1OC [1-20, 3-(2,3,4-trimethoxy-6-methylbenzoyl)-2-methoxy-4,5-dimethylpyridine]	≥ 90	–	–	–	–	84 to 86
COc1cc(C)c(C(=O)c2c(Cl)ncc(I)c2Cl)c(OC)c1OC [1-17, 3-(2,3,4-trimethoxy-6-methylbenzoyl)-2,4-dichloro-5-iodopyridine]	≥ 90	≥ 90	–	–	–	–
COc1cc(C)c(C(=O)c2c(OC)ncc(Cl)c2Cl)c(OC)c1OC [Compound No. 1-15, 3-(2,3,4-trimethoxy-6-methylbenzoyl)-4,5-dichloro-2-methoxypyridine]	≥ 90	≥ 90	≥ 90	100	100	84 to 86
COc1cc(C)c(C(=O)c2c(OC)cnc(Cl)c2Cl)c(OC)c1OC [2-6, 4-(2,3,4-trimethoxy-6-methylbenzoyl)-2,3-dichloro-5-methoxypyridine, reference compound]	≥ 90	–	≥ 90	0	90	–
COc1cc(C)c(C(=O)c2c(F)ncc(C)c2C)c(OC)c1OC [1-19, 3-(2,3,4-trimethoxy-6-methylbenzoyl)-2-fluoro-4,5-dimethylpyridine]	≥ 90	–	–	–	–	91 to 92
COc1cc(C)c(C(=O)c2c(OC)ncc(Cl)c2Br)c(OC)c1OC [Compound No. 1-1, 3-(2,3,4-trimethoxy-6-methylbenzoyl)-4-bromo-5-chloro-2-methoxypyridine]	≥ 90	≥ 90	≥ 90	100	100	92 to 94
CCc1c(Cl)cnc(OC)c1C(=O)c1c(C)cc(OC)c(OC)c1OC [1-2, 3-(2,3,4-trimethoxy-6-methylbenzoyl)-5-chloro-4-ethyl-2-methoxypyridine]	≥ 90	≥ 90	≥ 90	–	–	–
COc1cc(C)c(C(=O)c2c(F)ncc(C)c2I)c(OC)c1OC [1-18, 3-(2,3,4-trimethoxy-6-methylbenzoyl)-2-fluoro-4-iodo-5-methylpyridine]	≥ 90	–	–	–	–	140 to 141
COc1cc(C)c(C(=O)c2c(OC)cnc(Cl)c2C)c(OC)c1OC [2-1, 4-(2,3,4-trimethoxy-6-methylbenzoyl)-2-chloro-5-methoxy-3-methylpyridine, reference compound]	≥ 90	–	≥ 90	0	100	–
COc1cc(C)c(C(=O)c2c(Cl)ncc(C)c2Cl)c(OC)c1OC [1-16, 3-(2,3,4-trimethoxy-6-methylbenzoyl)-2,4-dichloro-5-methylpyridine]	≥ 90	≥ 90	≥ 90	–	–	78 to 80
